Test results published in PubChem BioAssay AID1963830 (Molecular Pharmacology Branch, DTP, NCI, 2024).

Tested on: 922993-354-T-J3-PDC complex spheroid viability
Assay: Anticancer human tumor 922993-354-T-J3-PDC patient-derived endometrial carcinoma cell line growth inhibition [POLQ]
Conditions: for IC50: curve of first compound; for viability, T/C: stronger effect = lower value
How it was run: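 Complex spheroid viability model combining PDC tumour cells with endothelial (HUVEC) and MSC stromal cells. Novobiocin, ART-558 or RP6685 were tested singly and in combination with standard and investigational anticancer drugs. Each was titrated in half-log steps from near clinical Cmax, or from 10 microM where Cmax was unknown.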

[1] = second compound 0.0316 µM, first compound 0.0316 µM
[2] = second compound 0.0316 µM, first compound 0.1 µM
[3] = second compound 0.0316 µM, first compound 0.316 µM
[4] = second compound 0.0316 µM, first compound 1 µM
[5] = second compound 0.0316 µM, first compound 3.16 µM
[6] = second compound 0.0316 µM, first compound 10 µM
[7] = second compound 0.1 µM, first compound 0.0316 µM
[8] = second compound 0.1 µM, first compound 0.1 µM
[9] = second compound 0.1 µM, first compound 0.316 µM
[10] = second compound 0.1 µM, first compound 1 µM
[11] = second compound 0.1 µM, first compound 3.16 µM
[12] = second compound 0.1 µM, first compound 10 µM
[13] = second compound 0.316 µM, first compound 0.0316 µM
[14] = second compound 0.316 µM, first compound 0.1 µM
[15] = second compound 0.316 µM, first compound 0.316 µM
[16] = second compound 0.316 µM, first compound 1 µM
[17] = second compound 0.316 µM, first compound 3.16 µM
[18] = second compound 0.316 µM, first compound 10 µM
[19] = second compound 1 µM, first compound 0.0316 µM
[20] = second compound 1 µM, first compound 0.1 µM
[21] = second compound 1 µM, first compound 0.316 µM
[22] = second compound 1 µM, first compound 1 µM
[23] = second compound 1 µM, first compound 3.16 µM
[24] = second compound 1 µM, first compound 10 µM
[25] = second compound 3.16 µM, first compound 0.0316 µM
[26] = second compound 3.16 µM, first compound 0.1 µM
[27] = second compound 3.16 µM, first compound 0.316 µM
[28] = second compound 3.16 µM, first compound 1 µM
[29] = second compound 3.16 µM, first compound 3.16 µM
[30] = second compound 3.16 µM, first compound 10 µM
[31] = second compound 10 µM, first compound 0.0316 µM
[32] = second compound 10 µM, first compound 0.1 µM
[33] = second compound 10 µM, first compound 0.316 µM
[34] = second compound 10 µM, first compound 1 µM
[35] = second compound 10 µM, first compound 3.16 µM
[36] = second compound 10 µM, first compound 10 µM
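Also: spheroids exposed to the agents for one week.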
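For viability, T/C in this document: 100% = DMSO vehicle control wells.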

C#Cc1c(F)ccc2cc(O)cc(-c3ncc4c(N5CC6CCC(C5)N6)nc(OCC56CCCN5CC(F)C6)nc4c3F)c12 (stereo not drawn) + Nc1ccc(C#CCN(C(=O)Cc2ncc(C(F)(F)F)cc2C(F)(F)F)c2ccc(F)cc2)nn1
IC50 (second compound 0.0316 µM): > 10 µM
IC50 (second compound 0.1 µM): > 10 µM
IC50 (second compound 0.316 µM): > 10 µM
IC50 (second compound 1 µM): > 10 µM
IC50 (second compound 3.16 µM): > 10 µM
IC50 (second compound 10 µM): > 10 µM
viability, T/C [1]: 109%
viability, T/C [2]: 106%
viability, T/C [3]: 104%
viability, T/C [4]: 102%
viability, T/C [5]: 104%
viability, T/C [6]: 102%
viability, T/C [7]: 105%
viability, T/C [8]: 101%
viability, T/C [9]: 104%
viability, T/C [10]: 101%
viability, T/C [11]: 101%
viability, T/C [12]: 102%
viability, T/C [13]: 109%
viability, T/C [14]: 108%
viability, T/C [15]: 106%
viability, T/C [16]: 103%
viability, T/C [17]: 104%
viability, T/C [18]: 102%
viability, T/C [19]: 105%
viability, T/C [20]: 107%
viability, T/C [21]: 105%
viability, T/C [22]: 106%
viability, T/C [23]: 107%
viability, T/C [24]: 98.2%
viability, T/C [25]: 103%
viability, T/C [26]: 106%
viability, T/C [27]: 104%
viability, T/C [28]: 104%
viability, T/C [29]: 102%
viability, T/C [30]: 100%
viability, T/C [31]: 94.3%
viability, T/C [32]: 99.9%
viability, T/C [33]: 100%
viability, T/C [34]: 99.1%
viability, T/C [35]: 96.9%
viability, T/C [36]: 92.5%

CCc1cc2c(N3CCc4c(cc(Cn5ccnc5)cc4-c4cn(C)nc4C(F)(F)F)C3=O)cc(C)nc2c(OC)n1 + Nc1ccc(C#CCN(C(=O)Cc2ncc(C(F)(F)F)cc2C(F)(F)F)c2ccc(F)cc2)nn1
IC50 (second compound 0.0316 µM): > 10 µM
IC50 (second compound 0.1 µM): > 10 µM
IC50 (second compound 0.316 µM): > 10 µM
IC50 (second compound 1 µM): > 10 µM
IC50 (second compound 3.16 µM): > 10 µM
IC50 (second compound 10 µM): > 10 µM
viability, T/C [1]: 103%
viability, T/C [2]: 106%
viability, T/C [3]: 105%
viability, T/C [4]: 110%
viability, T/C [5]: 107%
viability, T/C [6]: 101%
viability, T/C [7]: 108%
viability, T/C [8]: 106%
viability, T/C [9]: 108%
viability, T/C [10]: 105%
viability, T/C [11]: 101%
viability, T/C [12]: 102%
viability, T/C [13]: 103%
viability, T/C [14]: 98.1%
viability, T/C [15]: 105%
viability, T/C [16]: 106%
viability, T/C [17]: 109%
viability, T/C [18]: 104%
viability, T/C [19]: 102%
viability, T/C [20]: 100%
viability, T/C [21]: 107%
viability, T/C [22]: 107%
viability, T/C [23]: 106%
viability, T/C [24]: 99.1%
viability, T/C [25]: 99.8%
viability, T/C [26]: 107%
viability, T/C [27]: 102%
viability, T/C [28]: 105%
viability, T/C [29]: 103%
viability, T/C [30]: 99.6%
viability, T/C [31]: 99%
viability, T/C [32]: 98.3%
viability, T/C [33]: 100%
viability, T/C [34]: 102%
viability, T/C [35]: 99.3%
viability, T/C [36]: 92%

CCc1cc2c(N3CCc4c(cc(Cn5ccnc5)cc4-c4cn(C)nc4C(F)(F)F)C3=O)ccnc2c(OC)n1 + Nc1ccc(C#CCN(C(=O)Cc2ncc(C(F)(F)F)cc2C(F)(F)F)c2ccc(F)cc2)nn1
IC50 (second compound 0.0316 µM): > 10 µM
IC50 (second compound 0.1 µM): > 10 µM
IC50 (second compound 0.316 µM): > 10 µM
IC50 (second compound 1 µM): > 10 µM
IC50 (second compound 3.16 µM): > 10 µM
IC50 (second compound 10 µM): > 10 µM
viability, T/C [1]: 104%
viability, T/C [2]: 103%
viability, T/C [3]: 105%
viability, T/C [4]: 107%
viability, T/C [5]: 107%
viability, T/C [6]: 102%
viability, T/C [7]: 106%
viability, T/C [8]: 102%
viability, T/C [9]: 107%
viability, T/C [10]: 108%
viability, T/C [11]: 106%
viability, T/C [12]: 101%
viability, T/C [13]: 105%
viability, T/C [14]: 102%
viability, T/C [15]: 103%
viability, T/C [16]: 105%
viability, T/C [17]: 103%
viability, T/C [18]: 99.6%
viability, T/C [19]: 105%
viability, T/C [20]: 105%
viability, T/C [21]: 102%
viability, T/C [22]: 108%
viability, T/C [23]: 105%
viability, T/C [24]: 94.3%
viability, T/C [25]: 102%
viability, T/C [26]: 99.5%
viability, T/C [27]: 104%
viability, T/C [28]: 99%
viability, T/C [29]: 106%
viability, T/C [30]: 97.5%
viability, T/C [31]: 99.2%
viability, T/C [32]: 102%
viability, T/C [33]: 99.4%
viability, T/C [34]: 96.6%
viability, T/C [35]: 100%
viability, T/C [36]: 91%

COc1cc2cc(C(=O)CCC(=O)O)sc2cc1OC + Nc1ccc(C#CCN(C(=O)Cc2ncc(C(F)(F)F)cc2C(F)(F)F)c2ccc(F)cc2)nn1
IC50 (second compound 0.0316 µM): > 10 µM
IC50 (second compound 0.1 µM): > 10 µM
IC50 (second compound 0.316 µM): > 10 µM
IC50 (second compound 1 µM): > 10 µM
IC50 (second compound 3.16 µM): > 10 µM
IC50 (second compound 10 µM): > 10 µM
viability, T/C [1]: 104%
viability, T/C [2]: 105%
viability, T/C [3]: 108%
viability, T/C [4]: 102%
viability, T/C [5]: 109%
viability, T/C [6]: 84.6%
viability, T/C [7]: 108%
viability, T/C [8]: 105%
viability, T/C [9]: 103%
viability, T/C [10]: 95.6%
viability, T/C [11]: 104%
viability, T/C [12]: 78.9%
viability, T/C [13]: 102%
viability, T/C [14]: 103%
viability, T/C [15]: 98.3%
viability, T/C [16]: 97.7%
viability, T/C [17]: 102%
viability, T/C [18]: 82.1%
viability, T/C [19]: 102%
viability, T/C [20]: 99.6%
viability, T/C [21]: 108%
viability, T/C [22]: 102%
viability, T/C [23]: 103%
viability, T/C [24]: 81%
viability, T/C [25]: 99%
viability, T/C [26]: 102%
viability, T/C [27]: 98.5%
viability, T/C [28]: 104%
viability, T/C [29]: 105%
viability, T/C [30]: 84%
viability, T/C [31]: 94.6%
viability, T/C [32]: 95.2%
viability, T/C [33]: 97.7%
viability, T/C [34]: 95%
viability, T/C [35]: 104%
viability, T/C [36]: 78.8%
